The record followed here is patent US6569850B1, “Treatment of multiple sclerosis (MS) and other demyelinating conditions using lofepramine in combination with L-phenylalanine, tyrosine or tyrptophan and possibly a vitamin B12 compound” (priority 1994, dated 2003).

The experiment in a line: Treatment of patients with Multiple Sclerosis (case histories and patient series). The class given is in vivo, human. To be noted: for Contribution of the component to the therapeutic effect in MS: added to the antidepressant regime. Here is the method:
Over 100 other patients have done well on a similar regime, although some have been given other antidepressants either of the traditional tricyclic class, such as amitriptyline or imipramine, or the newer specialist serotonin uptake inhibitors or monoamine oxidase inhibitors. Four particular instances are given in the appendix. […] The doses of LPA have also varied from about 100 mg to up to 5 g per day, but best results are obtained with doses in the region of 500-2000 mg/day. The doses of antidepressants (with the proviso that minimum effective and maximum safe levels are determined according to the drug), lie broadly in the range 10 mg to 200 mg per day.
A specific example of the use of the treatment is 70 mgs (half the therapeutic starting dose for depression) of lofepramine taken each morning with 500 mgs of L-phenylalanine, and 500 mgs of L-phenylalanine taken mid afternoon. For patients with the regular MS attacks of chronic progressive MS it is desirable to include an 8-10 week course of 1000 micrograms of hydroxocobalamin (intra muscular) per week at the start of treatment and then 1000 micrograms every ten days thereafter.

Entries after “also recorded” stand apart in the source; their conditions may differ.

Take `N[C@@H](Cc1ccccc1)C(=O)O` [L-phenylalanine (LPA), L-phenylalanine]: the “Contribution of the component to the therapeutic effect in MS” value is “contributes to the therapeutic effect”. Regarding `CN(CCCN1c2ccccc2CCc2ccccc21)CC(=O)c1ccc(Cl)cc1` [lofepramine], under “antidepressant combined with neurotransmitter precursor”, the “Comparative therapeutic result among antidepressants in MS treatment” value is “best results; also recorded: Most have done best”. For the molecule vitamin B12, the “Contribution of the component to the therapeutic effect in MS” value is “does have a beneficial effect; also recorded: the treatment works best”.
